Here are results for 1 compound from ChEMBL document CHEMBL4229568, “Discovery of natural flavonoids as activators of Nrf2-mediated defense system: Structure-activity relationship and inhibition of intracellular oxidative insults” (Bioorg Med Chem, 2018).

Structures are written as SMILES. Active and inactive are the calls of the source. The calls are words filed in the database; no cut-off is given here.

Data set [1] concerns the target T1, Nuclear factor erythroid 2-related factor 2 (Homo sapiens) (UniProt Q16236).
T1 sequence (whole entry): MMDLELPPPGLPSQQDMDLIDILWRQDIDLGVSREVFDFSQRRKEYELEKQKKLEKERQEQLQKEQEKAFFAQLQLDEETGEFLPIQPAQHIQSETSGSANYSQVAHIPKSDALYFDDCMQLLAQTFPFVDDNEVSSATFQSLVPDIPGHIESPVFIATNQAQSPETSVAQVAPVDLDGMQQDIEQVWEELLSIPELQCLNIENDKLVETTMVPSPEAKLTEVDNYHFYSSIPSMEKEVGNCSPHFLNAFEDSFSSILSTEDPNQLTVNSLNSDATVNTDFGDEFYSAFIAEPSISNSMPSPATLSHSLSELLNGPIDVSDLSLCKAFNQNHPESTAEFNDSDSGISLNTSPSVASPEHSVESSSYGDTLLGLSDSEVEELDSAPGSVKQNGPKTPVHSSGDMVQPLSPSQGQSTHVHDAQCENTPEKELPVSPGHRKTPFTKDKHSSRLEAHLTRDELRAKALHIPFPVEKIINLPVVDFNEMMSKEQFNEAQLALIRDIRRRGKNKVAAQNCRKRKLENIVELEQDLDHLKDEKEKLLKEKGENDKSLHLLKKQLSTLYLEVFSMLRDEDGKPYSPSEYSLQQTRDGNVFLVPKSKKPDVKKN
The data set can be described thus: Induction of Nrf2 translocation from cytoplasm to nucleus in human BEAS2B cells at 6.25 uM after 18 hrs by DAPI staining-based immunofluorescence analysis. Format: cell-based.

For data set [2], the target named is T2, Nuclear factor erythroid 2-related factor 2 (Mus musculus) (UniProt Q60795).
T2 sequence (whole entry): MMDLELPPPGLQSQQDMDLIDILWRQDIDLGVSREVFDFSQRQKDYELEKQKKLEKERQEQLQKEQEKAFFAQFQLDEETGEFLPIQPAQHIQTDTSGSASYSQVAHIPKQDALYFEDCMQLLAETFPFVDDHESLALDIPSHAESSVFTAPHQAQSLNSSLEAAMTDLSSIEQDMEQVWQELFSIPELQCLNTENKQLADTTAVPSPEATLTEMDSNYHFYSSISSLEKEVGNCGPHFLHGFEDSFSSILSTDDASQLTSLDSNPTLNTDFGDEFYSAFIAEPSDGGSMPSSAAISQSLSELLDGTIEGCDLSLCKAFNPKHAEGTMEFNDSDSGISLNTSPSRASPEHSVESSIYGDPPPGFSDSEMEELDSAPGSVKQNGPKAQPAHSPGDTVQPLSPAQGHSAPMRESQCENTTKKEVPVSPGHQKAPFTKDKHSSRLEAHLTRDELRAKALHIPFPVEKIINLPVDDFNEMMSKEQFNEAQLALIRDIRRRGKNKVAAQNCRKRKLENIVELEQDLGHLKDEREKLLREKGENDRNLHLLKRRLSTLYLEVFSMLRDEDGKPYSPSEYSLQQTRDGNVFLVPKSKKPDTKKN
The data set can be described thus: Activation of Nrf2 in mouse Heap1c1c7 cells assessed as induction of NAD(P)H:quinone reductase activity at 25 uM relative to control. Format: cell-based.

Data set [3] has as its target T1, Nuclear factor erythroid 2-related factor 2 (Homo sapiens). The data set can be described thus: Activation of Nrf2 in human BEAS2B cells assessed as upregulation of gamma-GCS protein expression at 0.31 to 20 uM after 18 hrs by immunoblot analysis. Format: cell-based.
The target is the same in data set [4]. The data set can be described thus: Activation of Nrf2 in human BEAS2B cells assessed as upregulation of NQO1 protein expression at 50 to 100 uM after 18 hrs by immunoblot analysis. Format: cell-based.
The target is the same in data set [5]. The data set can be described thus: Activation of Nrf2 in human BEAS2B cells assessed as upregulation of gamma-GCS protein expression at 6.25 uM after 8 to 24 hrs by immunoblot analysis. Format: cell-based.
For data set [6] the target is unchanged. The data set can be described thus: Activation of Nrf2 in human BEAS2B cells assessed as upregulation of NQO1 protein expression at 6.25 uM after 48 hrs by immunoblot analysis. Format: cell-based.
The subject of data set [7] is BEAS-2B. The data set can be described thus: Effect on Keap1 protein levels in human BEAS2B cells at 6.25 uM after 4 to 48 hrs by immunoblot analysis. Format: functional, cell-based.
Data set [8] addresses T1, Nuclear factor erythroid 2-related factor 2 (Homo sapiens). Description: Activation of Nrf2 in human BEAS2B cells assessed as upregulation of NQO1 protein expression at 3.12 to 25 uM after 12 hrs by immunoblot analysis. Format: cell-based.
The test system of data set [9] is BEAS-2B. The data set can be described thus: Cytoprotective activity in human BEAS2B cells assessed as decrease in 5 to 20 uM As(+3)-induced cell death at 6.25 uM preincubated for 8 hrs followed by As(+3) challenge and measured after 24 hrs by MTT assay. Format: functional, cell-based.
The subject of data set [10] is BEAS-2B. The data set can be described thus: Cytoprotective activity in human BEAS2B cells assessed as decrease in As(+3)-induced cell apoptosis at 6.25 uM preincubated for 8 hrs followed by As(+3) challenge and measured after 24 hrs by annexin V-FITC/propidium iodide staining-based flow cytometric method. Format: functional.
The test system of data set [11] is BEAS-2B. Description: Cytotoxicity against human BEAS2B cells assessed as decrease in cell viability at 6.25 after 24 hrs by MTT assay. Format: cell-based.
Data set [12] has as its target T2, Nuclear factor erythroid 2-related factor 2 (Mus musculus). Description: Activation of Nrf2 in mouse Heap1c1c7 cells assessed as induction of NAD(P)H:quinone reductase activity at 6.25 uM pretreated for 1 hr followed by co-treatment with MEK1/2 inhibitor PD98059 for 24 hrs. Format: cell-based.
Data set [13] shares this target. Description: Activation of Nrf2 in mouse Heap1c1c7 cells assessed as induction of NAD(P)H:quinone reductase activity at 6.25 uM pretreated for 1 hr followed by co-treatment with PERK inhibitor GSK2606414 for 24 hrs. Format: cell-based.
Data set [14] shares this target. The data set can be described thus: Activation of Nrf2 in mouse Heap1c1c7 cells assessed as induction of NAD(P)H:quinone reductase activity at 6.25 uM pretreated for 1 hr followed by co-treatment with MEK1/2 inhibitor Uo126 for 24 hrs. Format: cell-based.
For data set [15], the target named is T1, Nuclear factor erythroid 2-related factor 2 (Homo sapiens). Description: Activation of Nrf2 in human BEAS2B cells assessed as upregulation of Nrf2 protein expression at 6.25 uM pretreated for 1 hr followed by co-treatment with p38 MAPK inhibitor SB203580 for 18 hrs by immunoblot analysis. Format: cell-based.
The target is the same in data set [16]. The data set can be described thus: Activation of Nrf2 in human BEAS2B cells assessed as upregulation of Nrf2 protein expression at 6.25 uM pretreated for 1 hr followed by co-treatment with PKC inhibitor Go6983 for 18 hrs by immunoblot analysis. Format: cell-based.
Data set [17] has the same target. The data set can be described thus: Activation of Nrf2 in human BEAS2B cells assessed as upregulation of NQO1 protein expression at 6.25 uM pretreated for 1 hr followed by co-treatment with PI3K inhibitor LY294002 for 18 hrs by immunoblot analysis. Format: cell-based.
For data set [18] the target is unchanged. Description: Activation of Nrf2 in human BEAS2B cells assessed as upregulation of NQO1 protein expression at 6.25 uM pretreated for 1 hr followed by co-treatment with PERK inhibitor GSK2606414 for 18 hrs by immunoblot analysis. Format: cell-based.
Data set [19] has the same target. The data set can be described thus: Activation of Nrf2 in human BEAS2B cells assessed as suppression of As(+3)-induced overproduction of reactive oxygen species at 6.25 uM pretreated for 8 hrs followed by As(+3) challenge and measured after 10 hrs. Format: cell-based.

On to `COc1ccc(-c2coc3cc(OC)cc(O)c3c2=O)cc1` [4',7-DIMETHOXY-5-HYDROXYGENISTEIN], for which the outcome (in data set [1]; in data set [5]; in data set [8]; in the data set on BEAS-2B [9]; in the data set with BEAS-2B [10]; in data set [14]) was Active. In addition, the result in data set [19] was Active. In [2], the fold change (FC) came out at 2.08. In addition, the Activity entry in data set [3] was “Dose-dependent effect”; with BEAS-2B [11] it was “Non-Toxic”. Also, the outcome (in data set [4]; in data set [6]; in the data set with BEAS-2B [7]; in data set [12]; in data set [13]; in data set [15]) was inactive. Further, the outcome in data set [16], in data set [17] and in data set [18] was inactive.
